Experimental data from ChEMBL document CHEMBL6127136, “Discovery of 1-(Phenylsulfonyl)-1,2,3,4-tetrahydroquinoline Derivative as Orally Bioavailable and Safe RORγt Inverse Agonists for Potential Treatment of Rheumatoid Arthritis” (J Med Chem, 2024).
The source made the active and inactive calls. The calls are words filed in the database; no cut-off is given here.

Assays:
[1] = Tmax in male DBA/1 mouse at 20 mg/kg, po measured after 24 hrs by HPLC analysis; assay type: ADME, organism-based; conditions: in vivo
HeLa = experiment: Antiproliferative activity against human HeLa cells assessed as inhibition of colony formation at 2 to 8 uM incubated for 7 days by crystal violet staining based light microscopic analysis; assay type: toxicity, cell-based; conditions: 168 h, dose 2-8 µM, time 7 day
Mus musculus [2] = experiment: Antiinflammatory activity against imiquimod-induced psoriasis-like skin inflammation in Balb/c mouse model assessed as decrease in IL-23 expression in skin at 15 mg/kg, IG preadministered with IMQ for 3 days followed by compound administration from day 4 and measured on day 14 by immunohistochemical analysis; assay type: functional, organism-based; conditions: time 11.0 day
[3] = AUC (0 to infinity) in male DBA/1 mouse at 5 mg/kg, iv measured after 24 hrs by HPLC analysis; assay type: ADME, organism-based; conditions: in vivo
Mus musculus [4] = experiment: Antiinflammatory activity against imiquimod-induced psoriasis-like skin inflammation in Balb/c mouse model assessed as decrease in IL-23 expression in skin preadministered with IMQ for 3 days followed by intragastric compound administration from day 4 and measured on day 14 by immunohistochemical analysis; assay type: functional, organism-based; conditions: dose 5-15 mg/kg, route ig, time 11.0 day
Mus musculus [5] = experiment: Antiinflammatory activity against imiquimod-induced psoriasis-like skin inflammation in Balb/c mouse model assessed as reduction in IL-23 level in peripheral blood preadministered with IMQ for 3 days followed by intragastric compound administration from day 4 and measured on day 13 by ELISA; assay type: functional, organism-based; conditions: dose 5-15 mg/kg, route ig, time 10.0 day
Mus musculus [6] = experiment: Antiinflammatory activity against imiquimod-induced psoriasis-like skin inflammation in Balb/c mouse model assessed as reduction in mononuclear cell infiltration in skin at 15 mg/kg, IG preadministered with IMQ for 3 days followed by compound administration from day 4 and measured on day 14 by H and E staining based analysis; assay type: functional, organism-based; conditions: time 11.0 day
Mus musculus [7] = experiment: Antiinflammatory activity against imiquimod-induced psoriasis-like skin inflammation in Balb/c mouse model assessed as reduction in IL-17A level in peripheral blood preadministered with IMQ for 3 days followed by intragastric compound administration from day 4 and measured on day 13 by ELISA; assay type: functional, organism-based; conditions: dose 5-15 mg/kg, route ig, time 10.0 day
[8] = Half-life in male DBA/1 mouse at 20 mg/kg, po measured after 24 hrs by HPLC analysis; assay type: ADME, organism-based; conditions: in vivo
[9] = Cmax in male DBA/1 mouse at 5 mg/kg, iv measured after 24 hrs by HPLC analysis; assay type: ADME, organism-based; conditions: in vivo
Mus musculus [10] = experiment: Antiinflammatory activity against imiquimod-induced psoriasis-like skin inflammation in Balb/c mouse model assessed as reduction in total psoriasis area preadministered with IMQ for 3 days followed by intragastric compound administration from day 4 and measured on day 14; assay type: functional, organism-based; conditions: dose 10-15 mg/kg, route ig, time 11.0 day
Mus musculus [11] = experiment: Antiinflammatory activity against imiquimod-induced psoriasis-like skin inflammation in Balb/c mouse model assessed as attenuation of skin layer thickening at 15 mg/kg, IG preadministered with IMQ for 3 days followed by compound administration from day 4 and measured on day 14 by H and E staining based analysis; assay type: functional, organism-based; conditions: time 11.0 day
Mus musculus [12] = experiment: Antiinflammatory activity against imiquimod-induced psoriasis-like skin inflammation in Balb/c mouse model assessed as decrease in dermal telangiectasia at 15 mg/kg, IG preadministered with IMQ for 3 days followed by compound administration from day 4 and measured on day 14 by H and E staining based analysis; assay type: functional, organism-based; conditions: time 11.0 day
Mus musculus [13] = experiment: Antiinflammatory activity against imiquimod-induced psoriasis-like skin inflammation in Balb/c mouse model assessed as reduction in total psoriasis severity index preadministered with IMQ for 3 days followed by intragastric compound administration from day 4 and measured on day 14; assay type: functional, organism-based; conditions: dose 10-15 mg/kg, route ig, time 11.0 day
[14] = Cmax in male DBA/1 mouse at 20 mg/kg, po measured after 24 hrs by HPLC analysis; assay type: ADME, organism-based; conditions: in vivo
Mus musculus [15] = experiment: Antiinflammatory activity against imiquimod-induced psoriasis-like skin inflammation in Balb/c mouse model assessed as decrease in IL-17F expression in skin preadministered with IMQ for 3 days followed by intragastric compound administration from day 4 and measured on day 14 by immunohistochemical analysis; assay type: functional, organism-based; conditions: dose 5-15 mg/kg, route ig, time 11.0 day
[16] = AUC (0 to t) in male DBA/1 mouse at 20 mg/kg, po measured after 24 hrs by HPLC analysis; assay type: ADME, organism-based; conditions: in vivo
HUVEC = experiment: Antiproliferative activity against HUVEC cells assessed as inhibition of colony formation at 2 to 8 uM incubated for 7 days by crystal violet staining based light microscopic analysis; assay type: toxicity, cell-based; conditions: human, 168 h, dose 2-8 µM, time 7 day
[17] = Half-life in male DBA/1 mouse at 5 mg/kg, iv measured after 24 hrs by HPLC analysis; assay type: ADME, organism-based; conditions: in vivo
[18] = Tmax in male DBA/1 mouse at 5 mg/kg, iv measured after 24 hrs by HPLC analysis; assay type: ADME, organism-based; conditions: in vivo
[19] = target: T1, Nuclear receptor ROR-gamma (Homo sapiens, UniProt P51449); experiment: Inverse agonist activity at GAL4 DNA-binding domain fused RORgamma (unknown origin) transfected in HEK293T cells co-transfected with GAL4-promoter driven luciferase reporter gene assessed as inhibition of RORgammat transcription incubated for 18 to 20 hrs by plate reader analysis; assay type: cell-based
T1 sequence (P51449 whole entry): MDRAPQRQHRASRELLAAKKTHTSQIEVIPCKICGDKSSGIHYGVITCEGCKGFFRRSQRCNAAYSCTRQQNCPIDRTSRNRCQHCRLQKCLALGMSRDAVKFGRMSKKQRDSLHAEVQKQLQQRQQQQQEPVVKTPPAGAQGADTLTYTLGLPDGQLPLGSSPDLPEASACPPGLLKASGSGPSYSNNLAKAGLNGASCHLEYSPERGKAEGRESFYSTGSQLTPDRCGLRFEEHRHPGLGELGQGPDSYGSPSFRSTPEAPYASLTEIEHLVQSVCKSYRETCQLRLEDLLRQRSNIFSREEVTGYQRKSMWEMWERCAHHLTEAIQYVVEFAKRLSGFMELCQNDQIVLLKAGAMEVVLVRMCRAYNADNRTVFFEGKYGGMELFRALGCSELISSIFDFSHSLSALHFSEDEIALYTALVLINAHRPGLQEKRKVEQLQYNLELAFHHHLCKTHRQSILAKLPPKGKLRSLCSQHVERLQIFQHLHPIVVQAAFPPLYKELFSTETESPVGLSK

[20] = AUC (0 to t) in male DBA/1 mouse at 5 mg/kg, iv measured after 24 hrs by HPLC analysis; assay type: ADME, organism-based; conditions: in vivo
[21] = Clearance in male DBA/1 mouse at 5 mg/kg, iv measured after 24 hrs by HPLC analysis; assay type: ADME, organism-based; conditions: in vivo
Mus musculus [22] = experiment: Antiinflammatory activity against imiquimod-induced psoriasis-like skin inflammation in Balb/c mouse model assessed as reduction in IL-17F level in peripheral blood preadministered with IMQ for 3 days followed by intragastric compound administration from day 4 and measured on day 13 by ELISA; assay type: functional, organism-based; conditions: dose 5-15 mg/kg, route ig, time 10.0 day
[23] = Oral bioavailability in male DBA/1 mouse at 20 mg/kg measured after 24 hrs by HPLC analysis; assay type: ADME, organism-based; conditions: in vivo
Mus musculus [24] = experiment: Antiinflammatory activity against imiquimod-induced psoriasis-like skin inflammation in Balb/c mouse model assessed as decrease in IL-17F expression in skin at 15 mg/kg, IG preadministered with IMQ for 3 days followed by compound administration from day 4 and measured on day 14 by immunohistochemical analysis; assay type: functional, organism-based; conditions: time 11.0 day
[25] = target: T1, Nuclear receptor ROR-gamma; experiment: Inverse agonist activity at N-terminal 6-His-tagged/APC-labeled human RORgammat LBD extracted from Escherichia coli assessed as inhibition of europium-labeled SRC-1 recruitment incubated for 3 hrs by TR-FRET analysis
[26] = Toxicity in imiquimod-induced psoriasis-like skin inflammation Balb/c mouse model assessed as change in body weight at 5 to 15 mg/kg, IG preadministered with IMQ for 3 days followed by compound administration from day 4 and measured on day 14; assay type: organism-based; conditions: in vivo, po, 264 h, dose 5-15 mg/kg, time 11 day
Mus musculus [27] = experiment: Antiinflammatory activity against imiquimod-induced psoriasis-like skin inflammation in Balb/c mouse model assessed as decrease in IL-17A expression in skin at 15 mg/kg, IG preadministered with IMQ for 3 days followed by compound administration from day 4 and measured on day 14 by immunohistochemical analysis; assay type: functional, organism-based; conditions: time 11.0 day
Mus musculus [28] = experiment: Antiinflammatory activity against imiquimod-induced psoriasis-like skin inflammation in Balb/c mouse model assessed as reduction in inflammatory cell infiltration in skin at 15 mg/kg, IG preadministered with IMQ for 3 days followed by compound administration from day 4 and measured on day 14 by H and E staining based analysis; assay type: functional, organism-based; conditions: time 11.0 day
Mus musculus [29] = experiment: Antiinflammatory activity against imiquimod-induced psoriasis-like skin inflammation in Balb/c mouse model assessed as decrease in IL-17A expression in skin preadministered with IMQ for 3 days followed by intragastric compound administration from day 4 and measured on day 14 by immunohistochemical analysis; assay type: functional, organism-based; conditions: dose 5-15 mg/kg, route ig, time 11.0 day
[30] = AUC (0 to infinity) in male DBA/1 mouse at 20 mg/kg, po measured after 24 hrs by HPLC analysis; assay type: ADME, organism-based; conditions: in vivo

Compound: CCC1CCc2cc(C(C)C)ccc2N1S(=O)(=O)c1ccc(OCC2CCOCC2)c(CO)c1 (racemic)
- Tmax [1]: 0.5 h
- Activity (HeLa): Non-Toxic
- Activity (Mus musculus [2]): Active
- AUC(0-inf) [3]: 1020 ng·h/mL
- Activity (Mus musculus [4]): Dose-Dependent Effect
- Activity (Mus musculus [5]): Dose-Dependent Effect
- Activity (Mus musculus [6]): Active
- Activity (Mus musculus [7]): Dose-Dependent Effect
- half-life [8]: 4.67 h
- Cmax [9]: 1210 ng/mL
- Activity (Mus musculus [10]): Dose-Dependent Effect
- Activity (Mus musculus [11]): Active
- Activity (Mus musculus [12]): Active
- Activity (Mus musculus [13]): Dose-Dependent Effect
- Cmax [14]: 485 ng/mL
- Activity (Mus musculus [15]): Dose-Dependent Effect
- AUC(0-t) at 24 h [16]: 1890 ng·h/mL
- Activity (HUVEC): Non-Toxic
- half-life [17]: 3.87 h
- Tmax [18]: 4.98 min
- IC50 [19]: 21 nM
- AUC(0-t) at 24 h [20]: 995 ng·h/mL
- clearance [21]: 81.9 mL/min/kg
- Activity (Mus musculus [22]): Dose-Dependent Effect
- bioavailability [23]: 48.1%
- Activity (Mus musculus [24]): Active
- IC50 [25]: 3.5 nM
- Activity [26]: Non-Toxic
- Activity (Mus musculus [27]): Active
- Activity (Mus musculus [28]): Active
- Activity (Mus musculus [29]): Dose-Dependent Effect
- AUC(0-inf) [30]: 1960 ng·h/mL
